Laboratory results: patent US20250214973A1, “1,4,5-TRISUBSTITUTED-1,2,3-TRIAZOLES AND USES THEREOF” (UNIVERSITY OF PUERTO RICO, priority 2022, published 2025)

Experiments:
MDA-MB-231 [1] = assay: Cell viability assay (MTT); assay type: cell-based; conditions: Homo sapiens
Method: Cells plated at equal density were treated at 500 nM of compounds. […]
(§1) Cells plated at equal density were treated at 250 nM of 4c at 250 nM.
(§2) Data from 3 biologic replicates each with 2 technical replicates. Four parameter dose-response curves generated using GraphPad Prism are shown.
Cell viability relative to vehicle (100%) is shown.
(§3) […] Using CellTiter 96 Non-Radioactive Cell Proliferation Assay (Promega, Corp.) according to manufactures' instructions, formazan was used as an indicator of viable cells at an absorbance 570 nm in a Tecan Microplate Reader M100. Data was calculated as fold change from vehicle and fitted using the 4′parameter logic nonlinear regression model in GraphPad Prism software. (n=3 biologic replicates: with 3 technical replicates each).
A range of compounds were tested by MTT assays for cell viability in MDA-MB-231 triple negative breast cancer (TNBC) cells and MDA-MB-435 HER2++ cancer cells.

MDA-MB-435 [2] = assay: Cell viability assay (MTT); assay type: cell-based, human
Method: (§4) Cells plated at equal density were treated at 500 nM of compounds. After 72 hours, cell viability was measured by a MTT assay. n=3; * p<0.05, ** p<0.01, *** p<0.001.
as §1, §2
[…]. GI50 was calculated using Graph pad Prism.
as §3
A range of compounds were tested by MTT assays for cell viability in MDA-MB-231 triple negative breast cancer (TNBC) cells and MDA-MB-435 HER2++ cancer cells. […].

Panc-1 [3] = assay: Cell viability assay (MTT); assay type: cell-based; conditions: Homo sapiens, 120 hours, 0-1000 nM
Method: as §3

Panc-1 [4] = assay: Wound healing assay; assay type: cell-based; conditions: Homo sapiens, 24 hr, read-out: inhibition of Panc-1 cell migration
Method: (§5) Mircrographs were digitally acquired at 0, 12, and 24 hours and the area of the wound quantified relative to the distance at time 0. n=3.
Panc-1 cells plated at equal density were subjected to a scratch in the center and treated with 4c at 0, 150 nM, 250 nM, or 500 nM. Mircrographs were digitally acquired at 0, 12, and 24 hours and the area of the wound quantified relative to the distance at time 0. n=3.

[5] = system: RAW264.7 macrophage cell line; assay: Wound healing assay; assay type: cell-based, murine; conditions: Mus musculus, read-out: inhibition of wound closure, RAW264.7
Method: as §5
Murine macrophage cell line, RAW264.7, plated at equal density were subjected to a scratch in the center and treated with 4c at 0, 150 nM, 250 nM, or 500 nM. Mircrographs were digitally acquired at 0, 12, and 24 hours and the area of the wound quantified relative to the distance at time 0. n=3.

MCF-7 = assay: Initial screening, SRB assay GI50; assay type: cell-based; conditions: Homo sapiens, MCF7, 48 hrs
Method: (§6) For initial screening, the GIso of compounds 4a-4h in the cell lines MDA-MB-231, MDA-MB-435 and MCF-7 was determined via the SRB-assay for 48 hrs as follows:
(§7) A stock solution of compounds was prepared at 50 mM in 100% DMSO. For cells preparation, a flask of 75 cm^2 or 25 cm^2 were used for 2.6×10^5 cells/mL or 1.44×10^5 cells/mL, respectively, with an 80-90% of confluence. Cells were washed with PBS and trypsinized. The concentration of cells was determined using a 1:2 dilutions with Trypan Blue and a hemocytometer. After cell count, the concentration was adjusted to have a 7.0-10.0×10^4 cells/mL. Approximately 100 μL of cells suspension, compounds, control positive and control negative were added in triplicates to a 96 well plate. Positive control used was doxorubicin, and the negative control was DMSO 0.1%. All compounds (4a-h) at 50, 25, 12.5, 6.3, and 1.6 μM were incubated with cells at 37° C. for 48 hrs. For fixation, cold TCA 50% was used and incubated at 4° C. for 1 h. Wells were washed and dried prior to tincture with 100 μL of SRB 0.4%. To remove excess of SRB, acetic acid was used. For analysis, TRIS-BASE Solution (pH=10.5) was used and shaken prior to reading using an ELISA reader at 540 nm and the software SoftMax Pro 4.8. For each compound, 50% growth inhibition (GI50) was calculated from Sigmoidal dose-response curves (variable-slope) that were generated with data obtained from experiments carried out in triplicates (GI50 values were generated with GraphPad Prism V. 6.02, GraphPad Software, Inc.).

MDA-MB-231 [6] = assay: Initial screening, SRB assay GI50; assay type: cell-based; conditions: Homo sapiens, 48 hrs
Method: as §6, §7

MDA-MB-435 [7] = assay: Initial screening, SRB assay GI50; assay type: cell-based; conditions: Homo sapiens, 48 hrs, read-out: MDA-MB435 GI50
Method: as §6, §7

MDA-MB-231 [8] = assay: Initial screening, inhibition of migration (wound gap); assay type: cell-based; conditions: Homo sapiens
Method: In addition, the inhibition of migration of MDA-MB-231 was determined via the following procedure:
Prior to assays, cells were grown until 80-90% confluence was observed. We used a 75 cm^2 flask for 2.6×10^5 cells/mL in 10 mL and for a 25 cm^2 flask 1.44×10^5 cells/mL in 5 mL. The cells were washed with PBS to remove all traces of FBS. We added 2 mL for a 25 cm^2 flasks or 4 mL for a 75 cm^2 flasks trypsin, and incubated 5-10 min at 37° C. At the end of the incubation time, cells were re-suspended and counted with hemocytometer using 1:2 dilutions with Trypan blue. Subsequently, cell viability was calculated. In a 12 well tissue culture plate, we used the plastic pattern to draw a fine space with a fine marker on the bottom of the plate. Cells were seeded at 1.5-2.2×10^5 cells/mL in 1 mL and incubated for 24 h. Cells were then rinsed with PBS and incubated in starving media (0.5% FBS) overnight. All controls and drugs were tested in triplicate. The negative control for each drug was prepared according to the drug's DMSO concentration. […] The wound was made using a sterile pipette tip of 200 μL. Cells were then rinsed very gently with media without FBS and media with negative controls was added. After a 24 h incubation, the gap distance was evaluated using the software Lumera Infinity Analyze 6.4.0. Pictures were taken at 0, 8, 12 and 24 h using a 10× objective in an Inverted Laboratory Microscope Leica DM IL LED, and an Infinity1-3 3.1 Megapixel USB 2.0 camera CMOS. The percentage of migration was calculated using the following formula: […]

MDA-MB-468 [9] = assay: Cell viability assay (MTT); assay type: cell-based; conditions: 500 nM, 72 hours
Method: as §4
Equal number of cells were seeded in a 24 well plate and incubated with vehicle or compounds according to this disclosure at concentrations between 1 and 0.001 nM for 72 and 120 hrs. Using CellTiter 96 Non-Radioactive Cell Proliferation Assay (Promega, Corp.) according to manufactures' instructions, formazan was used as an indicator of viable cells at an absorbance 570 nm in a Tecan Microplate Reader M100. Data was calculated as fold change from vehicle and fitted using the 4′parameter logic nonlinear regression model in GraphPad Prism software. (n=3 biologic replicates: with 3 technical replicates each).

MDA-MB-231 [10] = assay: Apoptosis assay, caspase 3/7 activity; assay type: cell-based, human; conditions: 500 nM, 48 hours
Method: (§8) Cells plated at equal density were treated at 500 nM of compounds. After 48 hours, caspase 3/7 activity was measured by luminescence. n=3; * p<0.05, ** p<0.01.
(§9) Equal number of cells were seeded incubated with vehicle or compounds according to this disclosure at 250 or 500 nM for 48 hrs. Apoptosis was measured using a Caspase-Glo3/7 Luminescence Assay Kit as per manufacturer's instructions (Promega, Corp.). Briefly, Caspase-3/7 Glo reagent was added and incubated at room temperature for 60 min and Caspase-3/7 activities were determined by detecting luminescence using Tecan Microplate Reader M100. (n=3 biologic replicates: with 3 technical replicates each).

MDA-MB-435 [11] = assay: Apoptosis assay, caspase 3/7 activity; assay type: cell-based, human; conditions: 500 nM, 48 hours
Method: as §8, §9

MDA-MB-468 [12] = assay: Apoptosis assay, caspase 3/7 activity; assay type: cell-based; conditions: 500 nM, 48 hours
Method: as §8, §9

GI50 (MCF-7)	GI50 (MDA-MB-231 [6])	GI50 (MDA-MB-435 [7])	SMILES	inhibition at […] (MDA-MB-231 [1]; MDA-MB-231, 250 nM for 48 hours (footnote a; title says 500 nM), read-out: % growth inhibition MDA-MB-231)	cytotoxicity at […] (MDA-MB-231 [1]; 250 nM, 48h, text prints MDA-MB-435 TNBC, read-out: inhibition of cell viability)	GI50 (MDA-MB-435 [2]; Homo sapiens, MDA-MB-435, 72 h, read-out: GI50 MDA-MB-435)	GI50 (Panc-1 [3])	inhibition at […] (Panc-1 [4]; 250 nM)	inhibition at 0.5 µM (Panc-1 [4]; 500 nM)	inhibition at 0.15 µM ([5]; 150 nM)	inhibition at […] ([5]; 250 nM)	inhibition at 0.5 µM (MDA-MB-231 [8]; at 0.5 μM, read-out: Inh. of migration (converted))	inhibition at 1.6 µM (MDA-MB-231 [8]; at 1.6 μM, read-out: Inh. of migration)	effect on cell viability, MDA-MB-435 (MDA-MB-435 [2]; 500 nM)	cytotoxicity at 0.5 µM (MDA-MB-435 [2]; Homo sapiens, MDA-MB-435, 500 nM, 72 hours, read-out: decrease in cell viability, MDA-MB-435)	effect on cell viability, MDA-MB-468 (MDA-MB-468 [9])	Caspase 3/7 activity compared to the vehicle, MDA-MB-231 (MDA-MB-231 [10])	Caspase 3/7 activity compared to the vehicle, MDA-MB-435 (MDA-MB-435 [11])	Caspase 3/7 activity, MDA-MB-468 (MDA-MB-468 [12])
–	–	–	CCn1c2ccccc2c2cc(-n3nncc3-c3ccccc3)ccc21 (racemic) [MBQ-167, reference compound]	36%	~40%	0.145 µM	0.155 µM	40%	50%	30%	30%	–	–	–	–	–	–	–	–
0.04 µM	8 µM	0.08 µM	CCn1c2ccccc2c2cc(-n3nnc(C(O)c4cccnc4)c3-c3ccccc3)ccc21 (stereo not shown) [Compound 4b, (1-(9-ethyl-9H-carbazol-3-yl)-5-phenyl-1H-1,2,3-triazol-4-yl) (pyridin-3-yl) methanol]	–	–	–	–	–	–	–	–	25.2%	61.4 ± 9.08%	inhibited cell viability	~80%	inhibited cell viability	increased apoptosis	increased apoptosis	significantly increased
